Data set [1] is described as follows: Concentration required for inhibition of human serine dependent Phospholipase A2.
For a further data set, the species on record is Homo sapiens. The experiment in a line: Compound was tested for inhibition of plasma enzyme in whole human plasma at concentration 100 nM. It counts as functional.
The species entered for data set [2] is Rattus norvegicus. The experiment in a line: Compound was tested for its percent CNS penetration in rat. Format: functional, Central nervous system.
Data set [3] is described as follows: Rapid clearance after intravenous administration in rat was determined. It counts as ADME, organism-based. The note with it: blood, read-out: CLb.
Data set [4] concerns Rattus norvegicus. The experiment in a line: Compound was tested for liver blood flow after intravenous administration in rat. Format: functional.
The subject of data set [5] is Platelet-activating factor acetylhydrolase (Rattus norvegicus). The data set is described as follows: Compound was tested for inhibition of Lipoprotein associated phospholipase A2 in rat. The note with it: concentration not given here.

`CCCCCCCCCCCCN(C)C(=O)Cn1cc(Cc2cnc(=O)n(CC(=O)NC)c2)c(=O)nc1SCc1ccc(F)cc1`: half-maximal inhibition in data set [1] (IC50) was put at 0.4 nM. Testing at 0.1 µM in the data set filed under Homo sapiens gave an inhibition of 80%. Turning to `CCCCCCCCN(C)C(=O)Cn1cc(Cc2cnc(=O)n(C)c2)c(=O)nc1SCc1ccc(F)cc1`, in data set [1], 27 nM corresponded to half-maximal inhibition (IC50). Consider `CCCCCCCCN(C)C(=O)Cn1cc(Cc2cnc(OC)nc2)c(=O)nc1SCc1ccc(F)cc1`, for which the IC50 (commonly the concentration needed to halve the response being measured) in data set [1] stood at 4 nM. Still for that read-out and setting: with `CCCCCCCCN(C)C(=O)Cn1cc(Cc2cnc(=O)n(CC)c2)c(=O)nc1SCc1ccc(F)cc1` the figure was 20 nM; with `CCCCCCCCN(C)C(=O)Cn1cc(Cc2cnc(=O)n(CC(=O)NCCO)c2)c(=O)nc1SCc1ccc(F)cc1`, 8 nM. In the data set listed under Rattus norvegicus [2], `CCCCCCCCN(C)C(=O)Cn1cc(Cc2cnc(=O)n(CC(=O)NC)c2)c(=O)nc1SCc1ccc(F)cc1` yielded an Activity of less than 7%. The IC50 in data set [1] amounted to 6 nM.

For the molecule `CCCCCCCCN(C)C(=O)Cn1cc(Cc2cnc(OCc3ccccc3)nc2)c(=O)nc1SCc1ccc(F)cc1`, the IC50 in data set [1] was 7 nM.

In turn, `CCCCCCCCCCCCN(C)C(=O)Cn1cc(Cc2cnc(=O)n(CC(=O)N3CCOCC3)c2)c(=O)nc1SCc1ccc(F)cc1` came in with an Activity in the data set filed under Rattus norvegicus [2] of less than 7%. Moreover, in data set [1], the half-maximal inhibitory concentration (IC50) is 0.7 nM. Moreover, 0.1 µM produced 80% inhibition in the data set filed under Homo sapiens.

`CCCCCCCCCCCCN(C)C(=O)Cn1cc(Cc2cnc(=O)n(C)c2)c(=O)nc1SCc1ccc(F)cc1` displayed an IC50 in data set [1] of 5 nM. That is a single-digit nanomolar value. On the same count and under the same terms, under `CCCCCCCCCCCCN(C)C(=O)Cn1cc(Cc2cnc(=O)n(CCO)c2)c(=O)nc1SCc1ccc(F)cc1` stands 1 nM; under `CCCCCCCCN(C)C(=O)Cn1cc(Cc2cncnc2)c(=O)nc1SCc1ccc(F)cc1`, 15 nM. On the same count and under the same terms, with `CCCCCCCCN(C)C(=O)Cn1cc(Cc2cnc(=O)n(CC(=O)OCC)c2)c(=O)nc1SCc1ccc(F)cc1` the figure was 75 nM. Turning to `CCCCCCCCCCCCN(C)C(=O)Cn1cc(Cc2cnc(=O)n(CC(=O)OCC)c2)c(=O)nc1SCc1ccc(F)cc1`, the IC50 in data set [1] was 4 nM. For the molecule `CCCCCCCCN(C)C(=O)Cn1cc(Cc2cnc(=O)n(CC(=O)O)c2)c(=O)nc1SCc1ccc(F)cc1`, the Activity in the data set filed under Rattus norvegicus [2] is 10%. The same molecule displayed an IC50 in data set [1] of 14 nM. Molecule `CCCCCCCCN(C)C(=O)Cn1cc(Cc2cnc(=O)n(CC(=O)N3CCN(C)CC3)c2)c(=O)nc1SCc1ccc(F)cc1` came in with an IC50 in data set [1] of 3 nM.

As for `CCCCCCCCN(C)C(=O)Cn1cc(Cc2cnc(=O)n(CC(=O)NCCC)c2)c(=O)nc1SCc1ccc(F)cc1`, in data set [1], the IC50 came to 11 nM. The same measure, in the same setting: with `CCCCCCCCN(C)C(=O)Cn1cc(Cc2cnc(=O)n(CC(=O)N3CCNC(=O)C3)c2)c(=O)nc1SCc1ccc(F)cc1` the figure was 2 nM.

For `CCCCCCCCCCCCN(C)C(=O)Cn1cc(Cc2cnc(=O)n(CC(=O)NCCO)c2)c(=O)nc1SCc1ccc(F)cc1`, 0.6 nM corresponded to half-maximal inhibition in data set [1] (IC50). Further, in the data set filed under Homo sapiens, 0.1 µM produced 79% inhibition. In data set [1], `CCCCCCCCCCCCN(C)C(=O)Cn1cc(Cc2cnc(=O)n(CC(=O)N3CCNC(=O)C3)c2)c(=O)nc1SCc1ccc(F)cc1` gave a half-maximal inhibitory concentration (IC50) of 0.4 nM.

As to `CCCCCCCCN(C)C(=O)Cn1cc(Cc2cnc(O)nc2)c(=O)nc1SCc1ccc(F)cc1`, the Activity in the data set listed under Rattus norvegicus [2] is 7%. The molecule further gave an IC50 in data set [1] of 4 nM.

Turning to `CCCCCCCCN(C)C(=O)Cn1cc(Cc2cnc(=O)n(CCO)c2)c(=O)nc1SCc1ccc(F)cc1`, the IC50 in data set [1] was found to be 5 nM. This counts as single-digit nanomolar. The same measure, in the same setting: with `CCCCCCCCCCCCN(C)C(=O)Cn1cc(Cc2cnc(OC)nc2)c(=O)nc1SCc1ccc(F)cc1` the figure was 1 nM. For `CCCCCCCCN(C)C(=O)Cn1cc(Cc2cnc(=O)n(CC(=O)N3CCN(C(C)=O)CC3)c2)c(=O)nc1SCc1ccc(F)cc1`, the IC50 in data set [1] was determined as 5 nM.

The molecule `CCCCCCCCNC(=O)Cn1cc(Cc2cncnc2)c(=O)nc1SCc1ccc(F)cc1` returned an IC50 in data set [1] of 7 nM. This IC50 and that of the molecule before are within 1.5-fold of each other.

`CCCCCCCCCCCCN(C)C(=O)Cn1cc(Cc2cnc(=O)n(CC(=O)O)c2)c(=O)nc1SCc1ccc(F)cc1`: the Activity in the data set filed under Rattus norvegicus [2] was determined as 37%; with Rattus norvegicus [4], 85%. This molecule returned an IC50 in data set [1] of 1 nM. Besides, in data set [3], the clearance is 76 mL/min/kg. In addition, the inhibition (usually the percentage by which the read-out fell short of the control) in data set [5] stood at 83%. On to `CCCCCCCCN(C)C(=O)Cn1cc(Cc2cnc(=O)n(CC(=O)N3CCOCC3)c2)c(=O)nc1SCc1ccc(F)cc1`, for which half-maximal inhibition in data set [1] (IC50) required 10 nM. This counts as double-digit nanomolar. Still for that read-out and setting: with `CCCCCCCCCCCCN(C)C(=O)Cn1cc(Cc2cnc(O)nc2)c(=O)nc1SCc1ccc(F)cc1` the figure was 0.9 nM. As to `CCCCCCCCCCCCN(C)C(=O)Cn1cc(Cc2cncnc2)c(=O)nc1SCc1ccc(F)cc1`, the Activity in the data set listed under Rattus norvegicus [2] is recorded as less than 2%. In turn, `CCCCCCCCN(C)C(=O)Cn1cc(Cc2cnc(OCC)nc2)c(=O)nc1SCc1ccc(F)cc1` had an IC50 in data set [1] of 3 nM. In other words, the single-digit nanomolar range.

(Values after ChEMBL document CHEMBL1134222, “The identification of a potent, water soluble inhibitor of lipoprotein-associated phospholipase A2” (Bioorg Med Chem Lett, 2001).)
